Data: US20220227745A1, “Compounds For Modulating FXR” (NANJING RUIJIE PHARMA TECH CO., LTD., priority 2019, published 2022)

Assays:
FXR LBD, GST = molecular target: T1, FXR LBD, GST (Homo sapiens, UniProt Q96RI1); assay: FXR Binding Assay (TR-FRET, Fluorescein-SRC2-2 coactivator peptide); settings: for Emax: % Activity relative to positive control, read-out: Pct Effect (Emax %); for EC50: TR-FRET FXR LBD coactivator recruitment
T1 construct: FXR LBD, GST; purchased Invitrogen PV4834
T1 sequence (Q96RI1 262-486 limits assumed): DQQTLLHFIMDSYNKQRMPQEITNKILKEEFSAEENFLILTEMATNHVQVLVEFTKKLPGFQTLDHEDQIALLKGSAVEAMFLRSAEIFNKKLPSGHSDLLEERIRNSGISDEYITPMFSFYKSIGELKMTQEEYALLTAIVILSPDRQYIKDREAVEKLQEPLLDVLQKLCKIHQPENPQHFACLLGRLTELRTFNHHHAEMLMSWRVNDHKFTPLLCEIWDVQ
Experimental: The interaction between the present compounds and FXR are evaluated by Time-Resolved Fluorescence Resonance Energy Transfer (TR-FRET) competition assay. FRET describes a radiation-free energy transfer between two chromophores: a donor fluorophore in its excited state can transfer energy to an acceptor fluorophore in close proximity (typically <10 nm). In contrast to standard FRET, TR-FRET unites time-resolved fluorescence (TRF) and the FRET principle, TRF use a long-lifetime lanthanide chelate as the donor species, while lanthanide chelates are unique in that their excited-state lifetime can be on the order of a millisecond or longer. Suitable neighbors for FRET are known in the art and can be obtained.
The assay was performed in following steps: first, prepared a) 1 mM compounds (100×) in DMSO; b) reaction buffer containing 1× buffer G with 10 mM DTT; c) 4×FXR LBD (20 nM) in 1× chilled buffer G. Second, performed 3-fold serial dilution of 1 mM test compounds using DMSO from 1 mM, 10 doses in a 96-well plate (249944, Nunc). Then, used complete buffer G to dilute each 100× compounds serial dilution to 2×. Third, added 10 μl 2× compound serial dilution into 384-well plate (3677, Corning). Then, added 5 μl FXR LBD into the assay plate. Prepared a solution containing 2 μM fluorescein-SRC2-2 (4×) and 20 nM Tb anti-GST antibody (4×) in buffer G at room temperature and started the reaction by adding 5 μl the above solution into each well of the assay plate. Centrifuged the assay plates at 1000 g for 1 min and then incubated at room temperature for lhr protected from light. Finally, the plate was read at wavelengths of 520 nm and 495 nm on Envision 2104 plate reader (PerkinElmer).
A ratio (Ratio520 nm/495 nm−Ratiobackground) was calculated for each well. The activity ratio was calculated as follow: […]
Ratiopositive: The average ratio for the positive control across the plate.
Ratiovehicle: The average ratio for negative controls across the plate.
(§1) EC50 was calculated by fitting % Activity values and log of compound concentrations to nonlinear regression (dose response-variable slope) with GraphPad 5.0.
(§2) X: log of compound concentration.

[1] = molecular target: T2, hFXR-LBD (FXR-GAL4 chimeric receptor) (Homo sapiens, UniProt Q96RI1); assay: FXR Transactivation Assay (GAL4 luciferase reporter in HEK293T cells); format: cell-based
T2 construct: host or cells: HEK293T
T2 sequence (Q96RI1 262-486 limits assumed): T1 sequence (Q96RI1 262-486 limits assumed)
Experimental: FXR Transactivation Assay
The present compounds were tested to assess their ability to stimulate FXR transactivation activity. The hFXR-LBD, coding sequence was inserted into the pBIND expression vector (Promega, E1581) to express FXR-GAL4 binding domain chimeric receptors. This expression vector and reporter vector (pGL4.35 which carry a stably integrated GAL4 promoter driven luciferase reporter gene) were co-transfected into HEK293T host cells. Upon agonist binding to the corresponding FXR-GAL4 chimeric receptor, the chimeric receptor binds to the GAL4 binding sites and stimulates the reporter gene.
All the working stock were shake for 5 min on plate shaker (QILINBEIER). Second, all cells were cultured as ATCC recommended. HEK293T cells were assayed in exponential growth phase. Removed culture medium from the flask and rinsed cells with PBS. Added TrypLE solution to the flask and make cells detach. Next, cells were washed once with complete growth medium. Then, cells were pelleted and washed twice with PBS to remove phenol red and resuspend them in medium to a proper concentration. Only cells with viability greater than 90% were used for assays. Seeded 6×10^6 HEK293T cells into a 100 mm dish and incubated at 37° C. under 5% CO2 atmosphere for 16 h. Third, Trans-IT reagent and Opti-MEM mix by inversion and incubate 5 min at room temperature. The cell transfection was performed by mixing DNA and the reagent mixture, as well as 6 μg GAL4-FXR plasmid or 2 μg pGL4.35 luciferase plasmid, respectively. The reagent mixture was added to a 100 mm dish and incubated for 4-7 hrs at 37° C. under 5% CO2 atmosphere. Fourth, transferred 75 nl compound dilutions into 384-well assay plates (PerkinElmer) and seeded HEK293T cells at 17,000 cells/well using phenol red-free DMEM containing 5% charcoal/dextran-treated FBS. Then, cells were incubated for 16-20 h at 37° C. under 5% CO2 atmosphere. Finally, added 25 μl Steady-Glo™ Luciferase Assay Reagent into each well of 384-well assay plate, and then shake plate for 5 min protected from light on a plate shaker. Then, the luminescence value was read on Evision 2104 plate reader (PerkinElmer).
The activity ratio was calculated as follow: […]
RLU: Resulting Luminescence
RLUpositive: The average RLU for the positive controls across the plate.
RLUvehicle: The average RLU for negative controls across the plate.
as §1, §2

Compound: Cn1cc(C(=O)O)c2ccc(N3CCN(CCc4c(-c5c(F)cccc5Cl)noc4C4CC4)CC3)cc21 [Example I10, 6-(4-(2-(3-(2-chloro-6-fluorophenyl)-5-cyclopropylisoxazol-4-yl)ethyl)piperazin-1-yl)-1-methyl-1H-indole-3-carboxylic Acid]
- Emax (FXR LBD, GST): 173%
- EC50 (FXR LBD, GST): 728 nM
- EC50 [1]: 524 nM

Compound: CC1CN(CCc2c(-c3c(Cl)cccc3Cl)noc2C2CC2)CCN1c1ccc2c(C(=O)O)cn(C)c2c1 (stereo not drawn) [Example I12, 6-(4-(2-(5-cyclopropyl-3-(2,6-dichlorophenyl)isoxazol-4-yl)ethyl)-2-methylpiperazin-1-yl)-1-methyl-1H-indole-3-carboxylic Acid]
- Emax (FXR LBD, GST): 147%
- EC50 (FXR LBD, GST): 133 nM
- EC50 [1]: 129 nM

Compound: O=C(O)c1ccc(N2CCN(CCc3c(-c4c(Cl)cccc4Cl)noc3C3CC3)CC2)cc1 [Example I14, 4-(4-(2-(5-cyclopropyl-3-(2,6-dichlorophenyl)isoxazol-4-yl)ethyl)piperazin-1-yl)benzoic Acid]
- Emax (FXR LBD, GST): 142%
- EC50 (FXR LBD, GST): 655 nM
- EC50 [1]: 912 nM

Compound: O=C(O)c1c[nH]c2cc(N3CCN(CCc4c(-c5c(Cl)cccc5Cl)noc4C4CC4)CC3)ccc12 [Example I15, 6-(4-(2-(5-cyclopropyl-3-(2,6-dichlorophenyl)isoxazol-4-yl)ethyl)piperazin-1-yl)-1H-indole-3-carboxylic Acid]
- Emax (FXR LBD, GST): 168%
- EC50 (FXR LBD, GST): 419 nM
- EC50 [1]: 667 nM

Compound: Cn1nc(C(=O)O)c2ccc(N3CCN(CCc4c(-c5c(Cl)cccc5Cl)noc4C4CC4)CC3)cc21 [Example I17, 6-(4-(2-(5-cyclopropyl-3-(2,6-dichlorophenyl)isoxazol-4-yl)ethyl)piperazin-1-yl)-1-methyl-1H-indazole-3-carboxylic Acid]
- Emax (FXR LBD, GST): 131%
- EC50 (FXR LBD, GST): 46 nM
- EC50 [1]: 1230 nM

Compound: Cn1nc2cc(N3CCN(CCc4c(-c5c(Cl)cccc5Cl)noc4C4CC4)CC3)ccc2c1C(=O)O [Example I18, 6-(4-(2-(5-cyclopropyl-3-(2,6-dichlorophenyl)isoxazol-4-yl)ethyl)piperazin-1-yl)-2-methyl-2H-indazole-3-carboxylic Acid]
- Emax (FXR LBD, GST): 142%
- EC50 (FXR LBD, GST): 46 nM
- EC50 [1]: 436 nM

Compound: Cn1cc(C(=O)O)c2ccc(N3CCN(CCc4c(-c5ccccc5OC(F)(F)F)noc4C4CC4)CC3)cc21 [Example I20, 6-(4-(2-(5-cyclopropyl-3-(2-(trifluoromethoxy)phenyl)isoxazol-4-yl)ethyl)piperazin-1-yl)-1-methyl-1H-indole-3-carboxylic Acid]
- Emax (FXR LBD, GST): 193%
- EC50 (FXR LBD, GST): 450 nM
- EC50 [1]: 906 nM

Compound: COc1cccc(Cl)c1-c1noc(C2CC2)c1CCN1CCN(c2ccc3c(C(=O)O)cn(C)c3c2)CC1 [Example I21, 6-(4-(2-(3-(2-chloro-6-methoxyphenyl)-5-cyclopropylisoxazol-4-yl)ethyl)piperazin-1-yl)-1-methyl-1H-indole-3-carboxylic Acid]
- Emax (FXR LBD, GST): 85.1%
- EC50 (FXR LBD, GST): 890 nM
- EC50 [1]: 2860 nM

Compound: Cc1cccc(Cl)c1-c1noc(C2CC2)c1CCN1CCN(c2ccc3c(C(=O)O)cn(C)c3c2)CC1 [Example I22, 6-(4-(2-(3-(2-chloro-6-methylphenyl)-5-cyclopropylisoxazol-4-yl)ethyl)piperazin-1-yl)-1-methyl-1H-indole-3-carboxylic Acid]
- Emax (FXR LBD, GST): 163%
- EC50 (FXR LBD, GST): 162 nM
- EC50 [1]: 634 nM

Compound: CC(CN1CCN(c2ccc3c(C(=O)O)cn(C)c3c2)CC1)c1c(-c2c(Cl)cccc2Cl)noc1C1CC1 (stereo not drawn) [Example I24, 6-(4-(2-(5-cyclopropyl-3-(2,6-dichlorophenyl)isoxazol-4-yl)propyl)piperazin-1-yl)-1-methyl-1H-indole-3-carboxylic Acid]
- Emax (FXR LBD, GST): 89.8%
- EC50 (FXR LBD, GST): 422 nM
- EC50 [1]: 1860 nM

Compound: Cn1cc(C(=O)O)c2ccc(N3CCN(CCc4c(-c5c(Cl)cccc5Cl)noc4C4CC4)CC3(C)C)cc21 [Example I25, 6-(4-(2-(5-cyclopropyl-3-(2,6-dichlorophenyl)isoxazol-4-yl)ethyl)-2,2-dimethylpiperazin-1-yl)-1-methyl-1H-indole-3-carboxylic Acid]
- Emax (FXR LBD, GST): 151%
- EC50 (FXR LBD, GST): 83 nM
- EC50 [1]: 288 nM

Compound: Cn1cc(C(=O)O)c2ccc(N3CCN(CCc4c(-c5ccccc5C(F)(F)F)noc4C4CC4)CC3)cc21 [Example I26, 6-(4-(2-(5-cyclopropyl-3-(2-(trifluoromethyl)phenyl)isoxazol-4-yl)ethyl)piperazin-1-yl)-1-methyl-1H-indole-3-carboxylic Acid]
- Emax (FXR LBD, GST): 214%
- EC50 (FXR LBD, GST): 882 nM
- EC50 [1]: 1210 nM

Compound: Cc1onc(-c2c(Cl)cccc2Cl)c1CCN1CCN(c2ccc3c(C(=O)O)cn(C)c3c2)CC1 [Example I27, 6-(4-(2-(3-(2,6-dichlorophenyl)-5-methylisoxazol-4-yl)ethyl)piperazin-1-yl)-1-methyl-1H-indole-3-carboxylic Acid]
- Emax (FXR LBD, GST): 91.1%
- EC50 (FXR LBD, GST): 454 nM
- EC50 [1]: 1800 nM

Compound: Cn1cc(C(=O)O)c2ccc(N3C4CCC3CN(CCc3c(-c5c(Cl)cccc5Cl)noc3C3CC3)C4)cc21 [Example I30, 6-(3-(2-(5-cyclopropyl-3-(2,6-dichlorophenyl)isoxazol-4-yl)ethyl)-3,8-diazabicyclo[3.2.1]octan-8-yl)-1-methyl-1H-indole-3-carboxylic Acid]
- Emax (FXR LBD, GST): 111%
- EC50 (FXR LBD, GST): 60 nM
- EC50 [1]: 1200 nM

Compound: C[C@@H]1CN(c2ccc3c(C(=O)O)cn(C)c3c2)CCN1CCc1c(-c2c(Cl)cccc2Cl)noc1C1CC1 [Example I35, (R)-6-(4-(2-(5-cyclopropyl-3-(2,6-dichlorophenyl)isoxazol-4-yl)ethyl)-3-methylpiperazin-1-yl)-1-methyl-1H-indole-3-carboxylic Acid]
- Emax (FXR LBD, GST): 156%
- EC50 (FXR LBD, GST): 97 nM
- EC50 [1]: 494 nM

Compound: Cn1cc(C(=O)O)c2ccc(C3CCN(CCc4c(-c5c(Cl)cccc5Cl)noc4C4CC4)CC3)cc21 [Example I36, 6-(1-(2-(5-cyclopropyl-3-(2,6-dichlorophenyl)isoxazol-4-yl)ethyl)piperidin-4-yl)-1-methyl-1H-indole-3-carboxylic Acid]
- Emax (FXR LBD, GST): 161%
- EC50 (FXR LBD, GST): 94 nM
- EC50 [1]: 577 nM

Compound: C[C@H]1CN(c2ccc3c(C(=O)O)cn(C)c3c2)CCN1CCc1c(-c2c(Cl)cccc2Cl)noc1C1CC1 [Example I37, (S)-6-(4-(2-(5-cyclopropyl-3-(2,6-dichlorophenyl)isoxazol-4-yl)ethyl)-3-methylpiperazin-1-yl)-1-methyl-1H-indole-3-carboxylic Acid]
- Emax (FXR LBD, GST): 232%
- EC50 (FXR LBD, GST): 101 nM
- EC50 [1]: 574 nM
